Consider six compounds from patent US20250332300A1 (priority 2024, published 2025).

Common to all, as to format: binding
The target in assay [1] is mouse HER2 (23-653) (Mus musculus, UniProt P70424). As to the kind of experiment: TR-FRET competition assay for peptide potency, mouse HER2. The arrangement: mouse HER2 (23-653) using a Cy5 labeled peptide as a probe; made in house; host or cells: mammalian cells. The method, then: (§1) Both proteins containing a His-, Avi-tag and biotin in Nterminus, were expressed in mammalian cells and produced in house. […] Standard assay conditions consist of 20 uL total volume in white 384-well plates (Greiner), in 10 mM HEPES buffer containing 150 mM NaCl, 3 mM EDTA, 0.05% Tween20 and 1% final DMSO. […] The ratiometric FRET assay readout is calculated from the ratio of the raw data of the two distinct fluorescence signals measured in time resolved mode (fluorescence 665 nm/fluorescence 620 nm). IC50 values were calculated with the standard Novartis in-house assay data analysis software (Helios software application, Novartis Institutes for BioMedical Research, unpublished) using the methods described in Comput. Methods. Programs. Biomed. 2006, 82, 31-37 (regression algorithms for nonlinear dose-response curve fitting).
A general note: TR-FRET usually uses a lanthanide donor and a delayed reading to cut background.

Assay [2] addresses T1, human HER2 (23-652) (Homo sapiens, UniProt P04626). Description: Surface plasmon resonance (SPR) for assessment of peptide affinity, human HER2. Details: towards human HER2 (23-652) and mouse HER2 (23-653); made in house. The method, then: Each protein was immobilized either onto a SA sensorchip (Cytiva, BR-1005-31) or CM5 sensorchip (Cytiva, BR-1005-30) to a density of 800-2000 RU. […] For the assay setup the same conditions (flow rate, running buffer, peptide dilution) as described above were used. In a first step the Anti Fc IgG Ab (from Human Antibody Capture Kit, Ref. 29234600, Cytiva) was diluted into acetate pH 5.0 at 25 ug/mL and immobilized at a flow rate of 10 uL/min over 360 s to reach a density around 6000 RU. […] The peptides were tested with an association time of 280 s followed by a dissociation time of 3000 s at a flow rate of 30 uL/min. The regeneration was done using 3 M magnesium chloride regeneration solution as obtained with a contact time of 30 s at a flow rate of 10 uL/min. Curve fitting was performed using the BiacoreTM 8K evaluation software.
On the technique in general: Surface plasmon resonance follows binding to a sensor surface in real time, without labels.

In assay [3] the target is T1, human HER2 (23-652). Description: TR-FRET competition assay for peptide potency, human HER2. The arrangement: towards human HER2 (23-652) and mouse HER2 (23-653); made in house; host or cells: mammalian cells. The protocol: as §1
Where [4] appears, read: SPR, human HER2 extracellular domain, 25° C., 1:1 binding model; read-out: huHER2-SPR-ONC KD.
[5] abbreviates: TR-FRET competition with Cy5 labeled peptide probe, 0.1 nM human HER2, 24 h incubation, read-out: huHER2 TR-FRET IC50.
Where [6] appears, read: TR-FRET competition with Cy5 labeled peptide probe, 0.1 nM mouse HER2, 24 h incubation, read-out: moHER2 TR-FRET IC50.

Read-outs that look alike come from different tables or passages of the source. Starred links: 1 amine or outer side, 2 acyl side, 3 side chain; linkers in the order of their positions; H or OH if unused. Positions of bridges follow the written chain, without caps; N, C: chain ends. Non-standard residues stand in square brackets, D forms with d. Residues, ends and D or L forms follow the SMILES beside them. *: point of attachment. DOTA = O=C(O)CN1CCN(CC(=O)O)CCN(CC(=O)*)CCN(CC(=O)O)CC1; Trp(5-OH) = N[C@@H](Cc1c[nH]c2ccc(O)cc12)C(=O)O; NMePhe(4-F) = CN[C@@H](Cc1ccc(F)cc1)C(=O)O; NMehPhe = CN[C@@H](CCc1ccccc1)C(=O)O; Aad = N[C@@H](CCCC(=O)O)C(=O)O; Gly(cPr) = N[C@H](C(=O)O)C1CC1; NMeK = CN[C@@H](CCCCN)C(=O)O; NMeDap = CN[C@@H](CN)C(=O)O; Orn = NCCC[C@H](N)C(=O)O; X6 = O=C(C[*:1])[*:2]

T1 sequence (P04626 23-652): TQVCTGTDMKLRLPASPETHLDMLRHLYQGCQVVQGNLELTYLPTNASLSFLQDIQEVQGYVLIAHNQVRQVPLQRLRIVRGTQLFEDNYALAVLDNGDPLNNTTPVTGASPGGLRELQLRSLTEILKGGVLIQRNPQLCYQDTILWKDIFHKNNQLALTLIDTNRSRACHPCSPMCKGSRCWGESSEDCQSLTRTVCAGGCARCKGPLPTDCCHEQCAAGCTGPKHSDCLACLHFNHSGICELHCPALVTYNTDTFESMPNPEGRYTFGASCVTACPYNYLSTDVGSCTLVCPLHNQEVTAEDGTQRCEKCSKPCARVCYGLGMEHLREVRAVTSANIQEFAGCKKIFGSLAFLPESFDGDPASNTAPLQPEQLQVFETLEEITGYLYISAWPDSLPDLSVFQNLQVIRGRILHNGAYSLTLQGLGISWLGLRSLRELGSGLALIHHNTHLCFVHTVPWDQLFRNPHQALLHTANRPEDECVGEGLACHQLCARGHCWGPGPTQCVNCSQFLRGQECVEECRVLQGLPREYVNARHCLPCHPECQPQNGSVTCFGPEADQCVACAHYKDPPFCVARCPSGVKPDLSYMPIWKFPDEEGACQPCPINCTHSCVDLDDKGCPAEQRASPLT

For the compound `CC(=O)NCCCC[C@H]1C(=O)N[C@@H](Cc2c[nH]c3ccc(O)cc23)C(=O)N[C@@H](Cc2c[nH]c3ccccc23)C(=O)N[C@@H]([C@H](C)O)C(=O)N(C)[C@H](C(=O)N(C)[C@@H](Cc2ccc(F)cc2)C(=O)N[C@@H](CCCCNC(=O)CN2CCN(CC(=O)O)CCN(CC(=O)O)CCN(CC(=O)O)CC2)C(N)=O)CNC(=O)CCC[C@H](NC(C)=O)C(=O)N[C@@H](Cc2ccc(O)cc2)C(=O)N[C@@H](CO)C(=O)N(C)[C@@H](CCc2ccccc2)C(=O)N1C` [Example C6], the IC50 (usually the concentration at which inhibition is half-maximal) in assay [1] (value in parentheses (**): recalculated after further repetition, read-out: moHER2 TR-FRET IC50, recalculated value achieved after further repetition) is 1 nM; in assay [3] (setting [5]), 0.5 nM; in assay [3] (value in parentheses (**): recalculated after further repetition, read-out: huHER2 TR-FRET IC50, recalculated value achieved after further repetition), 0.3 nM. In addition, the equilibrium dissociation constant (Kd) (in general, the concentration at which binding is half-saturated) in assay [2] (setting [4]) was found to be 0.3 nM.

`CC(=O)NCCCC[C@H]1C(=O)N[C@@H](Cc2c[nH]c3ccc(O)cc23)C(=O)N[C@@H](Cc2c[nH]c3ccccc23)C(=O)N[C@@H](C2CC2)C(=O)N(C)[C@H](C(=O)N(C)[C@@H](Cc2ccc(F)cc2)C(=O)N[C@@H](CCCNC(=O)CN2CCN(CC(=O)O)CCN(CC(=O)O)CCN(CC(=O)O)CC2)C(N)=O)CNC(=O)CCC[C@H](NC(C)=O)C(=O)N[C@@H](Cc2ccc(O)cc2)C(=O)N[C@@H](CO)C(=O)N(C)[C@@H](CCc2ccccc2)C(=O)N1C` [Example C9] (Ac-[Aad]YS[NMehPhe][NMeK](Ac)[Trp(5-OH)]W[Gly(cPr)][NMeDap][NMePhe(4-F)][Orn](DOTA)-NH2; lactam 1-9): the IC50 in assay [1] (setting [6]) was 0.2 nM; in assay [3] (setting [5]), below 0.1 nM. In addition, the equilibrium dissociation constant (Kd) in assay [2] (setting [4]) was below 0.1 nM.

For the compound `CC(=O)NCCCC[C@H]1C(=O)N[C@@H](Cc2c[nH]c3ccc(O)cc23)C(=O)N[C@@H](Cc2c[nH]c3ccccc23)C(=O)N[C@@H](C2CC2)C(=O)N(C)[C@H](C(=O)N(C)[C@@H](Cc2ccc(F)cc2)C(=O)N[C@@H](CCCCNC(=O)CN2CCN(CC(=O)O)CCN(CC(=O)O)CCN(CC(=O)O)CC2)C(N)=O)CNC(=O)CCC[C@H](NC(=O)CC(=O)O)C(=O)N[C@@H](Cc2ccc(O)cc2)C(=O)N[C@@H](CO)C(=O)N(C)[C@@H](CCc2ccccc2)C(=O)N1C` [Example C10], the IC50 in assay [1] (setting [6]) and in assay [3] (setting [5]) was below 0.1 nM each time. For the same compound, in assay [2] (setting [4]), the Kd was below 0.1 nM.

Take `CC(=O)NCCCC[C@H]1C(=O)N[C@@H](Cc2c[nH]c3ccc(O)cc23)C(=O)N[C@@H](Cc2c[nH]c3ccccc23)C(=O)N[C@@H](C2CC2)C(=O)N(C)[C@H](C(=O)N(C)[C@@H](Cc2ccc(F)cc2)C(=O)N[C@@H](CCCCNC(=O)CN2CCN(CC(=O)O)CCN(CC(=O)O)CCN(CC(=O)O)CC2)C(=O)O)CNC(=O)CCC[C@H](NC(C)=O)C(=O)N[C@@H](Cc2ccc(O)cc2)C(=O)N[C@@H](CO)C(=O)N(C)[C@@H](CCc2ccccc2)C(=O)N1C` [Example C12]: the IC50 was determined as 1 nM in assay [1] (setting [6]) and 0.3 nM in assay [3] (setting [5]). Besides, the Kd in assay [2] (setting [4]) was found to be 0.4 nM.

Regarding `CC(=O)NCCCC[C@H]1C(=O)N[C@@H](Cc2c[nH]c3ccc(O)cc23)C(=O)N[C@@H](Cc2c[nH]c3ccccc23)C(=O)N[C@@H](C2CC2)C(=O)N(C)[C@H](C(=O)N(C)[C@@H](Cc2ccc(F)cc2)C(=O)N[C@@H](CCCCNC(=O)CN2CCN(CC(=O)O)CCN(CC(=O)O)CCN(CC(=O)O)CC2)C(N)=O)CNC(=O)CCC[C@H](NC(=O)Cc2nnn[nH]2)C(=O)N[C@@H](Cc2ccc(O)cc2)C(=O)N[C@@H](CO)C(=O)N(C)[C@@H](CCc2ccccc2)C(=O)N1C` [Example C13], the IC50 in assay [1] (read-out: moHER2 TR-FRET IC50, TR-FRET competition with Cy5 labeled peptide probe, 0.1 nM mouse HER2, 24 h incubation) was 0.1 nM; in assay [3] (read-out: huHER2 TR-FRET IC50, TR-FRET competition with Cy5 labeled peptide probe, 0.1 nM human HER2, 24 h incubation), below 0.1 nM. Also, the Kd in assay [2] (read-out: huHER2-SPR-ONC KD; SPR, human HER2 extracellular domain, 25° C., 1:1 binding model) was below 0.1 nM.

With `CC(=O)NCCCC[C@H]1C(=O)N[C@@H](Cc2c[nH]c3ccc(O)cc23)C(=O)N[C@@H](Cc2c[nH]c3ccccc23)C(=O)N[C@@H](C2CC2)C(=O)N(C)[C@H](C(=O)N(C)[C@@H](Cc2ccc(F)cc2)C(=O)N[C@@H](CCCCNC(=O)CN2CCN(CC(=O)O)CCN(CC(=O)O)CCN(CC(=O)O)CC2)C(N)=O)CNC(=O)COC[C@H](NC(C)=O)C(=O)N[C@@H](Cc2ccc(O)cc2)C(=O)N[C@@H](CO)C(=O)N(C)[C@@H](CCc2ccccc2)C(=O)N1C` [Example C16] (Ac-SYS[NMehPhe][NMeK](Ac)[Trp(5-OH)]W[Gly(cPr)][NMeDap][NMePhe(4-F)]K(DOTA)-NH2; linker 1-9 via X6), the IC50 in assay [1] (setting [6]) is 0.1 nM; in assay [3] (setting [5]), below 0.1 nM. Further, in assay [2] (setting [4]), the dissociation constant Kd is below 0.1 nM.
